In patent publication US11046854B2, “Slippery liquid-infused porous surfaces that prevent microbial surface fouling” (Wisconsin Alumni Research Foundation, priority 2016, dated 2021):

Experiments:
Type in all cases: physicochemical
[1] = Water droplet sliding velocity on compound-loaded SLIPS; conditions: 10 μL water droplets, SLIPS loaded with the compound, tilt angle 10°; mean and standard error of six replicates
From the text: All QSI-loaded SLIPS used in this study contained 240 nmol of compound per substrate and all DMABI-loaded SLIPS contained 300 nmol of compound.

[2] = Release of QSIs and DMABI from SLIPS in PBS at 37° C. (UV/vis)
Experimental: Small Molecule Loading, Oil Infusion, and Characterization of Release. […] Immediately prior to use, loaded films were infused with silicone oil (for melting point and boiling point apparatuses; Sigma-Aldrich) by placing a 2.25 μL droplet of oil on each side and allowing the oil to spread over the entire surface. Excess oil was removed from the surface using tissue paper. […] At designated time points, substrates were removed from the incubation buffer and placed in fresh buffer before returning to the incubator. The release of the loaded agents into the incubation buffer was characterized using a UV/vis spectrophotometer.
Characterization of the release of QSIs and biofilm inhibitors from SLIPS.

[3] = Solubility of triclosan in silicone oil

SMILES	Slide Velocity [1]	loaded compound released ([2]; after the first 24 hours)	additional compound released ([2]; over the next 150 hours)	solubility in silicone oil [3]
Cc1cc2nc(N)[nH]c2cc1C [DMABI, Dimethyl-2-aminobenzamidazole]	7.4 ± 0.2 mm/s	approximately 40%	approximately 40%	–
Oc1cc(Cl)ccc1Oc1ccc(Cl)cc1Cl [Triclosan, 5-chloro-2-(2,4-dichlorophenoxy)phenol]	–	–	–	soluble in silicone oil
